Patent publication US20260042764A1, “COMPOSITIONS AND METHODS FOR INHIBITION OF KRAS” (TheRas, Inc., priority 2022, published 2026)

Experiments:
SW1900 cells (KRAS G12D) [1] = experiment: 3D Cell viability assay in SW1900 cells (Biological Example 6); format: cell-based; settings: SW1990 (text: SW1900, KRAS G12D) spheroids, 72 hours
Outline: (§1)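 EC50 came from a four-parameter log(inhibitor) vs response fit of CellTiter-Glo 3D luminescence. Compound exposure lasted 72 h at 37 °C: nine three-fold dilutions, 0.25% final DMSO. Cells were first grown 48 h as 3D spheroids (1000 cells/well, 10% FBS).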

[2] = system: Capan-2 cells (KRAS G12V); experiment: 3D Cell viability assay in Capan-2 cells (Biological Example 6); format: cell-based; settings: Capan-2 (KRAS G12V) spheroids, 72 hours
Outline: as §1

[3] = system: MKN1 cells (KRAS amplification); experiment: Cell-based pERK HTRF assay in MKN1 cells (Biological Example 5)
Outline: (§2)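 To gauge disruption of KRAS-driven signalling, pERK1/2 (Thr202/Tyr204) was quantified by time-resolved FRET in lysates of cells exposed 2 h at 37° C to a 9-point dose series. Signal ratio 665/620 nm was converted to % pERK for four-parameter EC50 fitting.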

H358 cells (KRAS G12C) [4] = experiment: Cell-based pERK HTRF assay in H358 cells (Biological Example 5)
Outline: as §2

AsPC-1 cells (KRAS G12D) = experiment: 3D Cell viability assay in AsPC-1 cells (Biological Example 6); format: cell-based; settings: AsPC-1 (KRAS G12D) spheroids, 72 hours
Outline: as §1

SW1900 cells (KRAS G12D) [5] = experiment: Cell-based pERK HTRF assay in SW1900 cells (Biological Example 5)
Outline: as §2

HCT116 cells (KRAS G13D) = experiment: 3D Cell viability assay in HCT116 cells (Biological Example 6); format: cell-based; settings: HCT116 (KRAS G13D) spheroids, 72 hours
Outline: as §1

HPAC cells (KRAS G12D) [6] = experiment: 3D Cell viability assay in HPAC cells (Biological Example 6); format: cell-based; settings: HPAC (KRAS G12D) spheroids
Outline: as §1

[7] = system: MKN1 cells (KRAS amplification); experiment: 3D Cell viability assay in MKN1 cells (Biological Example 6); format: cell-based; settings: MKN (MKN1, KRAS amplification) spheroids, 72 hours
Outline: as §1

H358 cells (KRAS G12C) [8] = experiment: 3D Cell viability assay in H358 cells (Biological Example 6); format: cell-based; settings: H358 (KRAS G12C) spheroids, 72 hours
Outline: as §1

[9] = system: Capan-2 cells (KRAS G12V); experiment: Cell-based pERK HTRF assay in Capan-2 cells (Biological Example 5)
Outline: as §2

RKN cells (KRAS G12V) [10] = experiment: Cell-based pERK HTRF assay in RKN cells (Biological Example 5)
Outline: as §2

HPAC cells (KRAS G12D) [11] = experiment: Cell-based pERK HTRF assay in HPAC cells (Biological Example 5)
Outline: as §2

RKN cells (KRAS G12V) [12] = experiment: 3D Cell viability assay in RKN cells (Biological Example 6); format: cell-based; settings: RKN (KRAS G12V) spheroids, 72 hours
Outline: as §1

[13] = MKN cells (MKN1, KRAS amplification)
[14] = SW1990 cells (text: SW1900, KRAS G12D)
[15] = Homo sapiens, MKN-1, MKN cells (MKN1, KRAS amplification)
[16] = Homo sapiens, NCI-H358, H358 (KRAS G12C) cells
[17] = Homo sapiens, SW1990, SW1990 cells (text: SW1900, KRAS G12D)
[18] = Homo sapiens, Capan-2, Capan-2 (KRAS G12V) cells

| SMILES | IC50 (SW1900 cells (KRAS G12D) [1]) [µM] | IC50 [3, 13] [µM] | IC50 (H358 cells (KRAS G12C) [4]; H358 (KRAS G12C) cells) [µM] | IC50 (AsPC-1 cells (KRAS G12D)) [µM] | IC50 (SW1900 cells (KRAS G12D) [5]; [14]) [µM] | IC50 (RKN cells (KRAS G12V) [10]) [µM] | IC50 (SW1900 cells (KRAS G12D) [1]; Homo sapiens) [µM] | IC50 [3, 15] [µM] | IC50 (H358 cells (KRAS G12C) [4]; [16]) [µM] | IC50 (AsPC-1 cells (KRAS G12D); Homo sapiens, ASPC1) [µM] | IC50 (SW1900 cells (KRAS G12D) [5]; [17]) [µM] | IC50 (HCT116 cells (KRAS G13D); Homo sapiens, HCT-116) [µM] | IC50 ([7]; Homo sapiens, MKN-1) [µM] | IC50 (H358 cells (KRAS G12C) [8]; Homo sapiens, NCI-H358) [µM] | IC50 [9, 18] [µM] | IC50 (HPAC cells (KRAS G12D) [11]; Homo sapiens, HPAC) [µM] | IC50 [2] [µM] | IC50 (RKN cells (KRAS G12V) [12]) [µM] | IC50 ([2]; Homo sapiens) [µM] | IC50 (HPAC cells (KRAS G12D) [6]; Homo sapiens, HPAC, 72 h) [µM] | other results |
| --- | --- | --- | --- | --- | --- | --- | --- | --- | --- | --- | --- | --- | --- | --- | --- | --- | --- | --- | --- | --- | --- |
| CCN(c1nc(OC[C@@]23CCCN2C[C@H](F)C3)nc2c(F)c(-c3ccc(F)c4sc(N)c(C#N)c34)c(C(F)(F)F)cc12)[C@H]1C[C@H](C)N(C(=O)[C@@H]2CC2(F)F)C1 (atropisomer, axis not shown) [Compound 751] |  |  |  |  |  | ≤ 0.1 | ≤ 0.1 | ≤ 0.1 | ≤ 0.1 | ≤ 0.1 | ≤ 0.1 | 0.1 to 1 | ≤ 0.1 | ≤ 0.1 | ≤ 0.1 | ≤ 0.1 |  | ≤ 0.1 | ≤ 0.1 | ≤ 0.1 |  |
| Cc1c(C(=O)N(C)C)nn2c1CN(c1nc(OC[C@@]34CCCN3C[C@H](F)C4)nc3c(F)c(-c4ccc(F)c5sc(N)c(C#N)c45)c(C(F)(F)F)cc13)CC2 (atropisomer, axis not shown; (aS)) [Compound 590, 5-((S)-7-(2-amino-3-cyano-7-fluorobenzo[b]thiophen-4-yl)-8-fluoro-2-(((2R,7aS)-2-fluorotetrahydro-1H-pyrrolizin-7a(5H)-yl)methoxy)-6-(trifluoromethyl)quinazolin-4-yl)-N,N,3-trimethyl-4,5,6,7-tetrahydropyrazolo[1,5-a]pyrazine-2-carboxamide] | ≤ 0.1 | ≤ 0.1 | ≤ 0.1 | ≤ 0.1 | ≤ 0.1 | ≤ 0.1 |  |  |  |  |  | 0.1 to 1 |  |  |  |  | ≤ 0.1 | ≤ 0.1 |  |  | IC50 (HPAC cells (KRAS G12D) [6]; 72 hours): ≤ 0.1 µM; IC50 [7]: ≤ 0.1 µM; IC50 (H358 cells (KRAS G12C) [8]): ≤ 0.1 µM; IC50 ([9]; Capan-2 (KRAS G12V) cells): ≤ 0.1 µM; IC50 (HPAC cells (KRAS G12D) [11]): ≤ 0.1 µM |
| N#Cc1cnn2c1CN(c1nc(OC[C@@]34CCCN3C[C@H](F)C4)nc3c(F)c(-c4ccc(F)c5sc(N)c(C#N)c45)c(C(F)(F)F)cc13)CC2 [Compound 392] |  |  |  |  |  | ≤ 0.1 | ≤ 0.1 | ≤ 0.1 | ≤ 0.1 | ≤ 0.1 | ≤ 0.1 | 0.1 to 1 | ≤ 0.1 | ≤ 0.1 | 0.1 to 1 | ≤ 0.1 |  | ≤ 0.1 | 0.1 to 1 | 0.1 to 1 |  |

More lines, main results first:

| IC50 (SW1900 cells (KRAS G12D) [1]) [µM] | IC50 [3, 13] [µM] | IC50 (H358 cells (KRAS G12C) [4]; H358 (KRAS G12C) cells) [µM] | IC50 (AsPC-1 cells (KRAS G12D)) [µM] | IC50 (SW1900 cells (KRAS G12D) [5]; [14]) [µM] | IC50 (RKN cells (KRAS G12V) [10]) [µM] | IC50 (SW1900 cells (KRAS G12D) [1]; Homo sapiens) [µM] | IC50 [3, 15] [µM] | IC50 (H358 cells (KRAS G12C) [4]; [16]) [µM] | IC50 (AsPC-1 cells (KRAS G12D); Homo sapiens, ASPC1) [µM] | IC50 (SW1900 cells (KRAS G12D) [5]; [17]) [µM] | IC50 (HCT116 cells (KRAS G13D); Homo sapiens, HCT-116) [µM] | IC50 ([7]; Homo sapiens, MKN-1) [µM] | IC50 (H358 cells (KRAS G12C) [8]; Homo sapiens, NCI-H358) [µM] | IC50 [9, 18] [µM] | IC50 (HPAC cells (KRAS G12D) [11]; Homo sapiens, HPAC) [µM] | SMILES | IC50 [2] [µM] | IC50 (RKN cells (KRAS G12V) [12]) [µM] | IC50 ([2]; Homo sapiens) [µM] | IC50 (HPAC cells (KRAS G12D) [6]; Homo sapiens, HPAC, 72 h) [µM] | other results |
| --- | --- | --- | --- | --- | --- | --- | --- | --- | --- | --- | --- | --- | --- | --- | --- | --- | --- | --- | --- | --- | --- |
| ≤ 0.1 | ≤ 0.1 | ≤ 0.1 | ≤ 0.1 | ≤ 0.1 | ≤ 0.1 |  |  |  |  |  |  |  |  |  |  | CCN(c1nc(OCC23CCCN2CC(F)C3)nc2c(F)c(-c3ccc(F)c4sc(N)c(C#N)c34)c(C(F)(F)F)cc12)C1CC(C)N(C(=O)C2CC2(F)F)C1 (stereo not shown) [Compound 732] | ≤ 0.1 | ≤ 0.1 |  |  | IC50 (HCT116 cells (KRAS G13D)): 0.1 to 1 µM; IC50 (HPAC cells (KRAS G12D) [6]; 72 hours): ≤ 0.1 µM; IC50 [7]: ≤ 0.1 µM; IC50 (H358 cells (KRAS G12C) [8]): ≤ 0.1 µM; IC50 ([9]; Capan-2 (KRAS G12V) cells): ≤ 0.1 µM; IC50 (HPAC cells (KRAS G12D) [11]): ≤ 0.1 µM |
|  |  |  |  |  | ≤ 0.1 | ≤ 0.1 | ≤ 0.1 | ≤ 0.1 | ≤ 0.1 | ≤ 0.1 | 0.1 to 1 | ≤ 0.1 | ≤ 0.1 | ≤ 0.1 | ≤ 0.1 | CCN(c1nc(OC[C@@]23CCCN2C[C@H](F)C3)nc2c(F)c(-c3ccc(F)c4sc(N)c(C#N)c34)c(C(F)(F)F)cc12)[C@H]1CCN(C(C)=O)C1 [Compound 262] |  | ≤ 0.1 | ≤ 0.1 | ≤ 0.1 |  |
